In US10898475B2, “Bach1 inhibitors in combination with Nrf2 activators and pharmaceutical compositions thereof” (vTv Therapeutics LLC, priority 2014, dated 2021):

Tested on: HMOX1 in Normal Human Lung Fibroblasts (NHLF)
Test: HMOX1 Protein Expression (immunostaining, fold induction or % positive cells over DMSO)
Conditions: for Hill slope of DMF dose response curves in Table 2: % Positive HMOX

## COCCNC(=O)c1cnc2c(c1)nc(Nc1nc3ccc(OC(F)(F)F)cc3s1)n2C [HPP-B, 3-Methyl-2-(6-trifluoromethoxy-benzothiazol-2-ylamino)-3H-imidazo[4,5-b]pyridine-6-carboxylic acid (2-methoxy-ethyl)-amide]
Bach1 Inhibitor Conc. 0.019 uM
  Hill slope of DMF dose response curves in Table 2: 2.14
Bach1 Inhibitor Conc. 0.039 uM
  Hill slope of DMF dose response curves in Table 2: 1.87
Bach1 Inhibitor Conc. 0.078 uM
  Hill slope of DMF dose response curves in Table 2: 1.25
Bach1 Inhibitor Conc. 0.156 uM
  Hill slope of DMF dose response curves in Table 2: 1.12
Cpd. 0.019 uM, DMF 0 uM
  % Cells Positive HMOX: 2.31%
  Fold Induction of HMOX: 1.24 fold
Cpd. 0.019 uM, DMF 0.03 uM
  % Cells Positive HMOX: 1.80%
  Fold Induction of HMOX: 1.17 fold
Cpd. 0.019 uM, DMF 0.1 uM
  % Cells Positive HMOX: 2.55%
  Fold Induction of HMOX: 1.13 fold
Cpd. 0.019 uM, DMF 0.3 uM
  % Cells Positive HMOX: 8.27%
  Fold Induction of HMOX: 1.43 fold
Cpd. 0.019 uM, DMF 1 uM
  % Cells Positive HMOX: 7.52%
  Fold Induction of HMOX: 1.57 fold
Cpd. 0.019 uM, DMF 3 uM
  % Cells Positive HMOX: 54.65%
  Fold Induction of HMOX: 2.98 fold
Cpd. 0.019 uM, DMF 10 uM
  % Cells Positive HMOX: 92.63%
  Fold Induction of HMOX: 4.94 fold
Cpd. 0.019 uM, DMF 30 uM
  % Cells Positive HMOX: 84.93%
  Fold Induction of HMOX: 4.23 fold
Cpd. 0.039 uM, DMF 0 uM
  % Cells Positive HMOX: 5.30%
  Fold Induction of HMOX: 1.45 fold
Cpd. 0.039 uM, DMF 0.03 uM
  % Cells Positive HMOX: 1.53%
  Fold Induction of HMOX: 1.07 fold
Cpd. 0.039 uM, DMF 0.1 uM
  % Cells Positive HMOX: 2.54%
  Fold Induction of HMOX: 1.08 fold
Cpd. 0.039 uM, DMF 0.3 uM
  % Cells Positive HMOX: 13.04%
  Fold Induction of HMOX: 1.59 fold
Cpd. 0.039 uM, DMF 1 uM
  % Cells Positive HMOX: 23.13%
  Fold Induction of HMOX: 1.97 fold
Cpd. 0.039 uM, DMF 3 uM
  % Cells Positive HMOX: 75.79%
  Fold Induction of HMOX: 2.84 fold
Cpd. 0.039 uM, DMF 10 uM
  % Cells Positive HMOX: 91.99%
  Fold Induction of HMOX: 4.86 fold
Cpd. 0.039 uM, DMF 30 uM
  % Cells Positive HMOX: 87.54%
  Fold Induction of HMOX: 4.82 fold
Cpd. 0.078 uM, DMF 0 uM
  % Cells Positive HMOX: 8.23%
  Fold Induction of HMOX: 1.46 fold
Cpd. 0.078 uM, DMF 0.03 uM
  % Cells Positive HMOX: 1.72%
  Fold Induction of HMOX: 1.12 fold
Cpd. 0.078 uM, DMF 0.1 uM
  % Cells Positive HMOX: 7.05%
  Fold Induction of HMOX: 1.21 fold
Cpd. 0.078 uM, DMF 0.3 uM
  % Cells Positive HMOX: 10.31%
  Fold Induction of HMOX: 1.43 fold
Cpd. 0.078 uM, DMF 1 uM
  % Cells Positive HMOX: 29.42%
  Fold Induction of HMOX: 2.29 fold
Cpd. 0.078 uM, DMF 3 uM
  % Cells Positive HMOX: 55.22%
  Fold Induction of HMOX: 3.12 fold
Cpd. 0.078 uM, DMF 10 uM
  % Cells Positive HMOX: 94.55%
  Fold Induction of HMOX: 5.06 fold
Cpd. 0.078 uM, DMF 30 uM
  % Cells Positive HMOX: 86.84%
  Fold Induction of HMOX: 4.52 fold
Cpd. 0.156 uM, DMF 0 uM
  % Cells Positive HMOX: 11.32%
  Fold Induction of HMOX: 1.96 fold
Cpd. 0.156 uM, DMF 0.03 uM
  % Cells Positive HMOX: 8.51%
  Fold Induction of HMOX: 1.46 fold
Cpd. 0.156 uM, DMF 0.1 uM
  % Cells Positive HMOX: 18.49%
  Fold Induction of HMOX: 1.73 fold
Cpd. 0.156 uM, DMF 0.3 uM
  % Cells Positive HMOX: 30.11%
  Fold Induction of HMOX: 2.06 fold
Cpd. 0.156 uM, DMF 1 uM
  % Cells Positive HMOX: 57.70%
  Fold Induction of HMOX: 2.87 fold
Cpd. 0.156 uM, DMF 3 uM
  % Cells Positive HMOX: 79.63%
  Fold Induction of HMOX: 3.63 fold
Cpd. 0.156 uM, DMF 10 uM
  % Cells Positive HMOX: 99.72%
  Fold Induction of HMOX: 5.58 fold
Cpd. 0.156 uM, DMF 30 uM
  % Cells Positive HMOX: 98.17%
  Fold Induction of HMOX: 4.99 fold
Combination with DMF at concentrations below their maximum effect (Table 2)
  combination effect in terms of the % HMOX positive cells: additive or greater than additive
Upon increasing amounts of the Bach1 Inhibitor
  change of Hill slope of the DMF dose response curve (FIG. 5): reduced
